Test results: patent publication US5340822A, “Polycyclic amine compounds and their enantiomers, their method of preparation and pharmaceutical compositions in which they are present” (Elf Sanofi, priority 1991, dated 1994)
Structures can show the parent of a compound that is named as a salt.

Legend:
[1] = target: binding of substance P; test: antagonism of the binding of substance P on rat cortical membranes and IM9 lymphoblasts; details: rat cortical membranes and/or IM9 lymphoblasts (not said which); read-out: Ki, antagonizes the binding of substance P
[2] = target: T1, binding of eledoisin (Rattus norvegicus, UniProt P16177); test: antagonism of the binding of eledoisin on rat membranes; details: read-out: Ki, antagonizes the binding of eledoisin
T1 construct: tests performed on rat membranes; from tissue
T1 sequence (P16177 1-452): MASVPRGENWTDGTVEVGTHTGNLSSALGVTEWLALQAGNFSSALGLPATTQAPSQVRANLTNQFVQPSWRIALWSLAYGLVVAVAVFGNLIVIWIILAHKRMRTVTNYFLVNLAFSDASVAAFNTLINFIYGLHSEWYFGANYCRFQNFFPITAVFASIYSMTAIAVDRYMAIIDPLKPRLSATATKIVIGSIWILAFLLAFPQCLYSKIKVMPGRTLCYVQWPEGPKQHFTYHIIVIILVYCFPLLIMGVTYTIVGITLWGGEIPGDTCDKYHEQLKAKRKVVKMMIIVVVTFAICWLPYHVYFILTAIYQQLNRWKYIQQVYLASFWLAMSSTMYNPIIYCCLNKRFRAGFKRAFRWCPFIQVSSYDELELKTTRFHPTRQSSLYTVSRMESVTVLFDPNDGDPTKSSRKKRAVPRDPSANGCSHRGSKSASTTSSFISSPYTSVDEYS
Text: Foster et al., Br. J. Pharmacol., 1988, 94, 602-608.
Eledoisin is a peptide of batrachian origin which is equivalent to neurokinin B.

[3] = target: T2, binding of neurokinin A (NKA) (Rattus norvegicus, UniProt P16610); test: antagonism of the binding of NKA on rat duodenal membranes; details: read-out: Ki, antagonizes the binding of neurokinin A
T2 construct: tests performed on rat duodenal membranes; from tissue; host or cells: rat duodenal membranes
T2 sequence (P16610 1-390): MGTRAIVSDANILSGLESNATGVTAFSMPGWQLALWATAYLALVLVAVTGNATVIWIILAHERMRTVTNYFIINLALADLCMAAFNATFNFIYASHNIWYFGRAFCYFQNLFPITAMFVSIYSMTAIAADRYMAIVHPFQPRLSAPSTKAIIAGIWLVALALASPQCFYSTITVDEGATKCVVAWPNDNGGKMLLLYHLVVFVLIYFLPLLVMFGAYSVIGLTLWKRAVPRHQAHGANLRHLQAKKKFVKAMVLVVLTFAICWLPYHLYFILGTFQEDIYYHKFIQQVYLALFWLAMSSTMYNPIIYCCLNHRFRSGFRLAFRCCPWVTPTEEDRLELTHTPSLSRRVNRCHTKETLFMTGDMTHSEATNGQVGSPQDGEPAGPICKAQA

[4] = system: NK1 receptor; details: D. Regoli, 1988 and 1989; cited from earlier work

O=C(Cc1ccccc1)N1CCCC(CCN2CCC(Cc3ccccc3)CC2)(c2ccc(Cl)c(Cl)c2)C1 (stereo not shown) [Compound 2, 3-[2-(4-Benzylpiperidin-1-yl)ethyl]-3-(3,4-dichlorophenyl)-1-phenylacetylpiperidine hydrochloride]
Ki [1]: 8.3 nM

O=C1CCC(CCN2CCC(O)(c3ccccc3)CC2)(c2ccc(Cl)c(Cl)c2)CN1Cc1ccccc1 (stereo not shown) [Compound 3]
Ki [2]: 200 nM

O=C(c1ccccc1)N1CCC(CCN2CCC(O)(c3ccccc3)CC2)(c2ccc(Cl)c(Cl)c2)C1 (stereo not shown) [Compound 7]
Ki [3]: 1.3 nM

[Sar^9,Met-(O2)^11 ]SP
selectivity for the NK1 receptor [4]: thought to have a selectivity for the NK1
